Experiments:
Type in all cases: cell-based, human
BT-549 Gal-3 P^64 cells [1] = assay: Cisplatin induced apoptosis, MTT assay; conditions: BT-549 galectin-3 P64 clone, 25 uM cisplatin, 72 hr, 37° C.
Experimental: (§1) FIGS. 4I and 4II show cisplatin induced apoptosis of BT-549 cells and cloned variants, FIG. 4I: % apoptosis in cells treated with 25 uM cisplatin for 72 hr at 37° C. and analyzed following MTT assay (ODs in the untreated control cells were calculated as 100%, and the values are the average of triplicate experiments, bars represent ±SD, *P>0.001), FIG. 4II: Western blot analysis of the expression of PARP in cells treated with 50 μM cisplatin after 24, 48, and 72 hours, IIA: BT-549; IIB: BT-549 Gal-3 H^64; IIC: BT-549 Gal-3 P^64 (β-Actin was used as loading control. 1—untreated; 2—24 hours; 3—48 hours; 4—72 hours), FIGS. 4IIIA-B and 4IIIA′-C′: Immunohistochemical analysis of intact and cleaved galectin-3 in breast cancer progression. To investigate the possible functional significance of this allelic variation, BT-549 stable cell clones over-expressing either Galectin-3 P^64 or H^64 variant after transfection, selection, and cloning of BT-549 galectin-3 null cells were generated. […] In parental and P64 clone, the apoptotic cells were 76.5±1.34% and 71.5±3.02% respectively (FIG. 4I). That the cells' death was due to apoptosis was confirmed by the cleavage of PARP. […] A-A′: normal breast tissue, B-B′: ductal hyperplasia, C-C′: infiltrating lobular carcinoma. Arrows in B′ and C′ indicate the cleaved protein, representative pictures are presented from a study of 5 normal breast tissues, 10 lobular hyperplasia, and 8 infiltrating lobular carcinoma cases. 2500 BT-549, BT-549 Gal-3 H^64 and BT-549 Gal-3 P^64 cells were seeded per well in triplicates onto 24 well culture dishes. In one set of wells, 25 μM cisplatin (Sigma-Aldrich Inc., St. Louis, Mo.) was added after 24 hr of seeding, the other non-treated set served as a control. Cell viability/apoptosis was determined after 72 hours by the mitochondrial-dependent reduction of 3-(4,5-dimethylthiazol-2-yl)-2,5-diphenyltetrazolium bromide (MTT) (Sigma-Aldrich Inc., St. Louis, Mo.) to formazan.

BT-549 Gal-3 H^64 cells [2] = assay: Cisplatin induced apoptosis, MTT assay; conditions: BT-549 cells expressing galectin-3 H^64 variant, 25 uM cisplatin, 72 hr, 37° C.
Experimental: as §1

BT-549 cells [3] = assay: Cisplatin induced apoptosis, MTT assay; conditions: parental BT-549 cells, 25 uM cisplatin, 72 hr, 37° C.
Experimental: as §1

BT-549 Gal-3 P^64 cells [4] = assay: Western blot analysis of PARP cleavage after cisplatin treatment; conditions: galectin-3 P^64 expressing cells, 50 μM cisplatin, 24, 48, 72 hours
Experimental: (§2) FIGS. 4I and 4II show cisplatin induced apoptosis of BT-549 cells and cloned variants, FIG. 4I: % apoptosis in cells treated with 25 uM cisplatin for 72 hr at 37° C. and analyzed following MTT assay (ODs in the untreated control cells were calculated as 100%, and the values are the average of triplicate experiments, bars represent ±SD, *P>0.001), FIG. 4II: Western blot analysis of the expression of PARP in cells treated with 50 μM cisplatin after 24, 48, and 72 hours, IIA: BT-549; IIB: BT-549 Gal-3 H^64; IIC: BT-549 Gal-3 P^64 (β-Actin was used as loading control. 1—untreated; 2—24 hours; 3—48 hours; 4—72 hours), FIGS. 4IIIA-B and 4IIIA′-C′: Immunohistochemical analysis of intact and cleaved galectin-3 in breast cancer progression. To investigate the possible functional significance of this allelic variation, BT-549 stable cell clones over-expressing either Galectin-3 P^64 or H^64 variant after transfection, selection, and cloning of BT-549 galectin-3 null cells were generated. […] In parental and P64 clone, the apoptotic cells were 76.5±1.34% and 71.5±3.02% respectively (FIG. 4I). That the cells' death was due to apoptosis was confirmed by the cleavage of PARP. […] A-A′: normal breast tissue, B-B′: ductal hyperplasia, C-C′: infiltrating lobular carcinoma. Arrows in B′ and C′ indicate the cleaved protein, representative pictures are presented from a study of 5 normal breast tissues, 10 lobular hyperplasia, and 8 infiltrating lobular carcinoma cases. To determine if cell death is due to apoptosis, 1×10^6 cells were seeded in 100 mm Petri dishes. After 24 hours of serum starvation, the cells were incubated with […]. After 24, 48, 72 hours, the cells were trypsinized, lysed and equivalent number of cells (1×10^5) were subjected to SDS-PAGE and Western blot analysis with a 1:200 dilution of anti-poly (ADP-ribose) polymerase (PARP), mouse monoclonal antibody (BioMol, Plymouth Meeting, Pa.). Blots were also immuno-reacted with a 1:5000 dilution of anti-b-actin mouse monoclonal antibody to normalize for variation in protein loading. […]

BT-549 Gal-3 H^64 cells [5] = assay: as above; conditions: galectin-3 H^64 cells, 50 μM cisplatin, 24, 48, 72 hours
Experimental: as §2

BT-549 cells [6] = assay: as above; conditions: parental BT-549 cells, 50 μM cisplatin, 24, 48, 72 hours
Experimental: as §2

N.N.[Cl][Pt][Cl] [cisplatin]
apoptotic cells (BT-549 Gal-3 P^64 cells [1]): 71.5±3.02%
apoptotic cells (BT-549 Gal-3 H^64 cells [2]): 36.2±2.2%
apoptotic cells (BT-549 cells [3]): 76.5±1.34%
PARP cleavage (85 kDa cleaved polypeptide) (BT-549 Gal-3 P^64 cells [4]): showed the 85 kDa cleaved polypeptide of PARP
PARP cleavage (85 kDa cleaved polypeptide) (BT-549 Gal-3 H^64 cells [5]): refractive to PARP cleavage
PARP cleavage (85 kDa cleaved polypeptide) (BT-549 cells [6]): showed the 85 kDa cleaved polypeptide of PARP

Source: US20100196882A1, “GALECTIN-3 nsSNP MARKER FOR CANCER” (priority 2009, published 2010)
